Data from US11912703B2, “6-azaindole compounds” (BRISTOL-MYERS SQUIBB COMPANY, priority 2017, dated 2024).
pIC50: −log10 of the molar value. Like-named read-outs stand apart in the source and are kept apart here.

Key:
human TLR7 = human TLR7 (Homo sapiens (Human), UniProt Q9NYK1); experiment: TLR7 inhibition reporter assay (HEK-Blue SEAP); format: cell-based; conditions: HEK-Blue cells overexpressing human TLR7, gardiquimod 7.5 μM stimulation
human TLR8 = human TLR8 (Homo sapiens (Human), UniProt Q9NR97); experiment: TLR8 inhibition reporter assay (HEK-Blue SEAP);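 also: SEAP driven by IFN-β minimal promoter with five NF-κB and AP-1 sites, compounds tested 0.05 nM to 50 µM, 22 h incubation, inhibition relative to agonist plus DMSO wells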
Chain of human TLR8 (Q9NR97 27-1041): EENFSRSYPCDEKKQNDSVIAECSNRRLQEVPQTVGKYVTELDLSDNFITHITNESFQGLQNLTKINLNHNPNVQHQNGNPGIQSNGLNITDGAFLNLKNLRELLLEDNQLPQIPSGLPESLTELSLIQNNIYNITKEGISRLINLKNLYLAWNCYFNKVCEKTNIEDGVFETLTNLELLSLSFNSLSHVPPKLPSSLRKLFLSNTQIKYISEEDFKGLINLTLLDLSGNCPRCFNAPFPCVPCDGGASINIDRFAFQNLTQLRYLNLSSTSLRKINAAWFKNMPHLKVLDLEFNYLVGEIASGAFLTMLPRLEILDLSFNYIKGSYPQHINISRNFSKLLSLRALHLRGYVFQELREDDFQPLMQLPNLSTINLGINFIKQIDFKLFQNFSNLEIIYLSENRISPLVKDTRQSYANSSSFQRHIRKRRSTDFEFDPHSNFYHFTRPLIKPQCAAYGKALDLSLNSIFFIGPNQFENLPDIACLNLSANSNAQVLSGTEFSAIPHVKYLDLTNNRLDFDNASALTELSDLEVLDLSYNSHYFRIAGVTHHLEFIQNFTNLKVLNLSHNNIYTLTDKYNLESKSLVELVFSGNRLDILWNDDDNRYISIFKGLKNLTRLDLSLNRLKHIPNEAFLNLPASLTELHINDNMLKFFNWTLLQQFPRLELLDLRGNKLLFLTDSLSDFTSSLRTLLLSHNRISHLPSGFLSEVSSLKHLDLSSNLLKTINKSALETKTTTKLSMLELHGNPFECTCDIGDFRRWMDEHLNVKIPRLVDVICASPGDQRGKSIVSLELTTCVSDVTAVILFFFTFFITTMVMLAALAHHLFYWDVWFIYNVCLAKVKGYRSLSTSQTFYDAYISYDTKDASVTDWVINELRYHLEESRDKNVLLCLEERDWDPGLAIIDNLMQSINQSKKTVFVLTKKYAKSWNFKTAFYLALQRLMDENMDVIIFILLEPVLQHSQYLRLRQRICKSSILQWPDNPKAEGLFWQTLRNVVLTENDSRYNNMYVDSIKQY

human TLR9 = human TLR9 (Homo sapiens (Human), UniProt Q9NR96); experiment: TLR9 inhibition reporter assay (HEK-Blue SEAP);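 also: SEAP driven by IFN-β minimal promoter carrying five NF-κB and AP-1 sites, 22 h at 37 °C, compounds 0.05 nM–50 µM, inhibition scaled between agonist-plus-DMSO and reference-inhibitor wells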
Chain of human TLR9 (Q9NR96 26-1032): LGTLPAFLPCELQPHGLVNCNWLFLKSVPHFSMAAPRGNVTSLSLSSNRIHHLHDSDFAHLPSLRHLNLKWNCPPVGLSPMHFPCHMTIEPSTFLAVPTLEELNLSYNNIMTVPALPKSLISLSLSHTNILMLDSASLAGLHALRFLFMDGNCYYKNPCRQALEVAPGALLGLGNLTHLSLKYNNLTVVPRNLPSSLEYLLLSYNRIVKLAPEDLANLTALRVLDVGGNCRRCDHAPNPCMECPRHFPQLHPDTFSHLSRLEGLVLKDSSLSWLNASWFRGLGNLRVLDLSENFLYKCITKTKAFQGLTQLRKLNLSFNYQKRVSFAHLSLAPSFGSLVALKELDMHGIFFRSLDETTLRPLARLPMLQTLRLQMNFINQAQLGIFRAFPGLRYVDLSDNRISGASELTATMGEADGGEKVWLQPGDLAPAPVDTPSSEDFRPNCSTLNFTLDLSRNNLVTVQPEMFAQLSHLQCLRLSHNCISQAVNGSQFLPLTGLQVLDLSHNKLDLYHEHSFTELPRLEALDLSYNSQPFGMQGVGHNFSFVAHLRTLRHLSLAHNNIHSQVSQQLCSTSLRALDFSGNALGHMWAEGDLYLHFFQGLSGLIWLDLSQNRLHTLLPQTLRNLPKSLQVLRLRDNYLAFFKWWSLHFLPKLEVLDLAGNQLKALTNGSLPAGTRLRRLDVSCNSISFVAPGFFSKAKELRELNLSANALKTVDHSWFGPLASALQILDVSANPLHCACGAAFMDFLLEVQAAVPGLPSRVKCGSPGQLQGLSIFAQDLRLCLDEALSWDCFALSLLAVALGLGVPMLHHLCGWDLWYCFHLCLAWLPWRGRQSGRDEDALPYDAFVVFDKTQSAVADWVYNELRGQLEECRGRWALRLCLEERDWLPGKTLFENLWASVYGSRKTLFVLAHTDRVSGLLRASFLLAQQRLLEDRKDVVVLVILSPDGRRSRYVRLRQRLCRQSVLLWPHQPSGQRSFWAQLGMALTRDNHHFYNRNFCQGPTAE

[1] = read-out: TLR8 IC50; HEK-Blue cells overexpressing human TLR8, R848 15.9 μM stimulation, SEAP reporter
[2] = read-out: TLR9 IC50; HEK-Blue cells overexpressing human TLR9, ODN2006 5 nM stimulation, SEAP reporter
[3] = read-out: TLR8 IC50; HEK-Blue cells overexpressing human TLR8; R848 15.9 μM stimulation; SEAP reporter
[4] = read-out: TLR9 IC50; HEK-Blue cells overexpressing human TLR9; ODN2006 5 nM stimulation; SEAP reporter

Chain of human TLR7 (Q9NYK1 27-1049): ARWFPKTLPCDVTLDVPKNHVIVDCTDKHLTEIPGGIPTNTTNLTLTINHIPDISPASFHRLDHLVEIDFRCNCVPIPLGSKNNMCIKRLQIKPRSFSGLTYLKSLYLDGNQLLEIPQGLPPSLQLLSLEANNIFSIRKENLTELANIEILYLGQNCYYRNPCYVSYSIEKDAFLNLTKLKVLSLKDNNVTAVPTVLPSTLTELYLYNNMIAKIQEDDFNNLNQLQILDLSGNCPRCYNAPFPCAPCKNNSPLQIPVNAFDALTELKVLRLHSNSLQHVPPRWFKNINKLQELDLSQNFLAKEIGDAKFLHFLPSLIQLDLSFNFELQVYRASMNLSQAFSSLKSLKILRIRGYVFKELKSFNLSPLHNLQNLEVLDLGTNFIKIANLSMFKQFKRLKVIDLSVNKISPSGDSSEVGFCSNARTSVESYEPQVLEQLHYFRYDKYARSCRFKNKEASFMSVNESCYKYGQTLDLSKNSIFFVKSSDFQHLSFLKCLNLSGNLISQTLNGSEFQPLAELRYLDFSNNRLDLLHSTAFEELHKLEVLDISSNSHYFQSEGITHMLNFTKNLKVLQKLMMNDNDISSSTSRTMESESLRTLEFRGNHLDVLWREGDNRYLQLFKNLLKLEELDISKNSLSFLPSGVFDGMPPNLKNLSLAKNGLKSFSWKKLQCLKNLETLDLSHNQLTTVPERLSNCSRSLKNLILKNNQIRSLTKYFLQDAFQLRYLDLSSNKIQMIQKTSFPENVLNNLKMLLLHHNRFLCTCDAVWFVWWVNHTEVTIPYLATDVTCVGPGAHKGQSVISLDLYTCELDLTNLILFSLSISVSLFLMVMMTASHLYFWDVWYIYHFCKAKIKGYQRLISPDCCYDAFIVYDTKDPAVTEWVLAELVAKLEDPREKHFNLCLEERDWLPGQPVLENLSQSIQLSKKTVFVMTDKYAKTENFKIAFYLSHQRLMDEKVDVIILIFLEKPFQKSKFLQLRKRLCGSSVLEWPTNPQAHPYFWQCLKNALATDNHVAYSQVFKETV

Row | SMILES | pIC50 (human TLR7) | pIC50 (human TLR8; [1]) | pIC50 (human TLR9; [2]) | pIC50 (human TLR8; [3]) | pIC50 (human TLR9; [4]) | pIC50 (human TLR8) | pIC50 (human TLR9)
1 | Cc1c(N2CCC(N3CCS(=O)(=O)CC3)CC2)ncc2[nH]c(-c3cc(C)c4ncnn4c3)c(C(C)C)c12 [Example 281] | 7.80 | 7.37 | 4.44 |  |  |  | 
2 | COc1cc(-c2[nH]c3cnc(C4CCN(CC(C)(C)O)CC4)cc3c2C(C)C)cn2ncnc12 [Example 296] | 8.48 | 8.27 | 6.88 |  |  |  | 
3 | COc1cc(-c2[nH]c3cnc(C4CCN(CC(F)(F)F)CC4)c(F)c3c2C(C)C)cn2ncnc12 [Example 127] | 7.33 | 6.82 | < 4.30 |  |  |  | 
4 | COc1cc(-c2[nH]c3cnc(C4CCC(N5CC6(COC6)C5)C4)cc3c2C(C)C)cn2ncnc12 (stereo not drawn) [Example 118] | 8.07 | 8.85 | 6.53 |  |  |  | 
5 | Cc1c(-c2[nH]c3cnc(N4CCN(CC(=O)N(C)C)C[C@H]4C)c(F)c3c2C(C)C)cn2ncnc2c1C [Example 466] | 7.80 |  |  | 8.60 | 4.32 |  | 
6 | COc1cc(-c2[nH]c3cnc(N4CCC(N(C)C5COC5)CC4)c(F)c3c2C(C)C)cn2ncnc12 [Example 104] | 8.44 | 8.77 | 5.28 |  |  |  | 
7 | COc1cc(-c2[nH]c3cnc(C4CCC(N(C)C)CC4)cc3c2C(C)C)cn2ncnc12 (stereo not drawn) [Example 340] | 5.89 | 6.15 | 4.94 |  |  |  | 
8 | Cc1cc(-c2[nH]c3cnc(C4CCC(NCC(C)(C)C)CC4)c(F)c3c2C(C)C)cn2ncnc12 (stereo not drawn) [Example 48] | 7.92 | 7.89 | 5.02 |  |  |  | 
9 | CNC(=O)CN1CCC(c2cc3c(C(C)C)c(-c4cn5ncnc5c(C)c4C)[nH]c3cn2)CC1 [Example 26] | 8.51 | 8.16 | 6.20 |  |  |  | 
10 | Cc1c(-c2[nH]c3cnc(N4CCN(CC5CCOCC5)CC4)c(F)c3c2C(C)C)cn2ncnc2c1C [Example 411] | 8.02 | 9.74 | 4.95 |  |  |  | 
11 | CNC(=O)CN1CCN(c2cc3c(C(C)C)c(-c4cc(C)c5ncnn5c4)[nH]c3cn2)CC1 [Example 302] | 5.80 | < 5.51 | < 4.30 |  |  |  | 
12 | COc1cc(-c2[nH]c3cnc(C4CCC(N5CC6(COC6)C5)CC4)cc3c2C(C)C)cn2ncnc12 (stereo not drawn) [Example 309] | 8.14 | 7.31 | 6.88 |  |  |  | 
13 | CNCC(=O)N1CCC(c2ncc3[nH]c(-c4cc(OC)c5ncnn5c4)c(C(C)C)c3c2C)CC1 [Example 12] | 7.28 | 6.56 | 6.06 |  |  |  | 
14 | COc1cc(-c2[nH]c3cnc(N4CCC(N(C)CC(N)=O)CC4)c(F)c3c2C(C)C)cn2ncnc12 [Example 222] | 8.49 |  |  | 8.57 | 5.24 |  | 
15 | Cc1c(-c2[nH]c3cnc(N4CCN(CC(C)(C)C)CC4)c(F)c3c2C(C)C)cn2ncnc2c1C [Example 432] | 6.99 | 8.57 | < 4.30 |  |  |  | 
16 | Cc1c(-c2[nH]c3cnc(C4CCN(C(=O)CN(C)C)CC4)c(F)c3c2C(C)C)cn2ncnc2c1C [Example 29] | 8.37 | 8.33 | 5.77 |  |  |  | 
17 | COc1cc(-c2[nH]c3cnc(C4CCN(C5CCOCC5)CC4)c(F)c3c2C(C)C)cn2ncnc12 [Example 217] | 8.47 |  |  | 8.36 | 5.12 |  | 
18 | COCCN1CCN(c2ncc3[nH]c(-c4cc(OC)c5ncnn5c4)c(C(C)C)c3c2F)[C@H](C)C1 [Example 444] | 8.30 | 8.17 | 4.70 |  |  |  | 
19 | Cc1c(-c2[nH]c3cnc(C4CCN(C5COC5)CC4)cc3c2C(C)C)cn2ncnc2c1C [Example 30] | 8.33 | 8.11 | 6.07 |  |  |  | 
20 | CCN(C)C1CCC(c2cc3c(C(C)C)c(-c4cc(OC)c5ncnn5c4)[nH]c3cn2)CC1 (stereo not drawn) [Example 331] | 6.58 | 6.20 | 5.48 |  |  |  | 
21 | Cc1c(N2CCC(N3CCNC(=O)C3)CC2)ncc2[nH]c(-c3cc(C)c4ncnn4c3)c(C(C)C)c12 [Example 284] | 8.08 | 7.85 | 4.63 |  |  |  | 
22 | Cc1c(-c2[nH]c3cnc(C4CCC(NCC(F)F)CC4)cc3c2C(C)C)cn2ncnc2c1C (stereo not drawn) [Example 336] | 8.06 | 7.44 | 5.40 |  |  |  | 
23 | COc1cc(-c2[nH]c3cnc(C4CCNCC4)cc3c2C(C)C)cn2ncnc12 [Example 312] | 8.07 | 6.94 | 6.04 |  |  |  | 
24 | Cc1cc(-c2[nH]c3cnc(C4CCN(C5COC5)CC4)c(F)c3c2C(C)C)cn2ncnc12 [Example 182] | 8.42 | 7.96 | 4.73 |  |  |  | 
25 | Cc1c(-c2[nH]c3cnc(N4CCN(CC(N)=O)CC4)c(C)c3c2C(C)C)cn2ncnc2c1C [Example 414] | 7.39 | 8.21 | < 4.30 |  |  |  | 
26 | Cc1c(-c2[nH]c3cnc(C4CCC(N5CC6(COC6)C5)CC4)c(C)c3c2C(C)C)cn2ncnc2c1C (stereo not drawn) [Example 142] | 7.89 | 7.41 | 6.55 |  |  |  | 
27 | Cc1c(-c2[nH]c3cnc(N4CCN(CCS(C)(=O)=O)CC4)c(F)c3c2C(C)C)cn2ncnc2c1C [Example 398] | 8.14 | 8.72 | 4.33 |  |  |  | 
28 | COc1cc(-c2[nH]c3cnc(N4CC5(CN(CCS(C)(=O)=O)C5)C4)c(F)c3c2C(C)C)cn2ncnc12 [Example 357] | 7.68 | 8.00 | 4.43 |  |  |  | 
29 | CCN(C)C1CCC(c2ncc3[nH]c(-c4cn5ncnc5c(C)c4C)c(C(C)C)c3c2C)CC1 (stereo not drawn) [Example 143] | 7.48 | 7.48 | 6.17 |  |  |  | 

The next compounds have a higher pIC50 (human TLR7) than those just listed; values first:

Row | pIC50 (human TLR7) | pIC50 (human TLR8; [1]) | pIC50 (human TLR9; [2]) | pIC50 (human TLR8; [3]) | pIC50 (human TLR9; [4]) | pIC50 (human TLR8) | pIC50 (human TLR9) | SMILES
30 | 9.46 | 8.85 | 6.34 |  |  |  |  | Cc1c(-c2[nH]c3cnc(C4CCC(NC5COC5)CC4)cc3c2C(C)C)cn2ncnc2c1C (stereo not drawn) [Example 334]
31 | 8.66 | 8.72 | 5.56 |  |  |  |  | Cc1cc(-c2[nH]c3cnc(N4CCC(N(C)CC(=O)N(C)C)CC4)c(F)c3c2C(C)C)cn2ncnc12 [Example 45]
32 | 8.82 | 8.52 | 6.29 |  |  |  |  | COc1cc(-c2[nH]c3cnc(N4CCNCC4)c(C)c3c2C(C)C)cn2ncnc12 [Example 213, 6-(3-isopropyl-4-methyl-5-(piperazin-1-yl)-1H-pyrrolo [2,3-c]pyridin-2-yl)-8-methoxy-[1,2,4]triazolo[1,5-a]pyridine]
33 | 9.10 | 9.29 | 5.38 |  |  |  |  | COc1cc(-c2[nH]c3cnc(N4CCC(NC(C)C)CC4)c(F)c3c2C(C)C)cn2ncnc12 [Example 157]
34 | 9.42 | 9.19 | 6.04 |  |  |  |  | Cc1c(N2CCC(N(C)C(C)C)CC2)ncc2[nH]c(-c3cc(C)c4ncnn4c3)c(C(C)C)c12 [Example 124]
35 | 9.14 | 9.24 | 6.29 |  |  |  |  | Cc1c(-c2[nH]c3cnc(N4CCC(NC(C)C)CC4)c(C)c3c2C(C)C)cn2ncnc2c1C [Example 113]
36 | 9.46 | 8.92 | 5.61 |  |  |  |  | COc1cc(-c2[nH]c3cnc(N4CCC(NC(C)C)CC4)c(C)c3c2C(C)C)cn2ncnc12 [Example 202]
37 | 9.38 | 9.29 | 5.83 |  |  |  |  | COc1cc(-c2[nH]c3cnc(N4CCN(CC#N)CC4)c(F)c3c2C(C)C)cn2ncnc12 [Example 365]
38 | 8.82 |  |  | 8.59 | 6.09 |  |  | CCN(C)C1CCC(c2ncc3[nH]c(-c4cc(OC)c5ncnn5c4)c(C(C)C)c3c2F)CC1 (stereo not drawn) [Example 228]
39 | 8.70 | 8.57 | 5.48 |  |  |  |  | COCCN1CCC(c2ncc3[nH]c(-c4cc(OC)c5ncnn5c4)c(C(C)C)c3c2F)CC1 [Example 21]
40 | 9.01 | 9.57 | 5.99 |  |  |  |  | Cc1c(-c2[nH]c3cnc(C4CCC(NC5CCOCC5)CC4)c(F)c3c2C(C)C)cn2ncnc2c1C (stereo not drawn) [Example 134]
41 | 9.07 | 9.32 | 5.23 |  |  |  |  | COc1cc(-c2[nH]c3cnc(N4CCC(NC5CCOC5)CC4)c(F)c3c2C(C)C)cn2ncnc12 (stereo not drawn) [Example 103]
42 | 8.68 | 9.64 | 5.84 |  |  |  |  | COc1cc(-c2[nH]c3cnc(N4CCC(NCC5(C)COC5)CC4)cc3c2C(C)C)cn2ncnc12 [Example 322]
43 | 8.68 | 8.70 | 5.82 |  |  |  |  | Cc1cc(-c2[nH]c3cnc(C4CCN(C5CCOCC5)CC4)c(F)c3c2C(C)C)cn2ncnc12 [Example 187]
44 | 9.47 | 9.62 | 5.55 |  |  |  |  | CCN(C)C1CCN(c2ncc3[nH]c(-c4cc(OC)c5ncnn5c4)c(C(C)C)c3c2F)CC1 [Example 102]
45 | 9.24 | 8.42 | 6.02 |  |  |  |  | COc1cc(-c2[nH]c3cnc(C4CCC(N(C)C(C)C)CC4)c(F)c3c2C(C)C)cn2ncnc12 (stereo not drawn) [Example 76]
46 | 8.89 | 8.85 | 5.04 |  |  |  |  | CCN(C)C1CCN(c2ncc3[nH]c(-c4cn5ncnc5c(C)c4C)c(C(C)C)c3c2F)CC1 [Example 83]
47 | 9.13 | 9.24 | 5.56 |  |  |  |  | Cc1c(-c2[nH]c3cnc(N4CCC(N5CCC5)CC4)c(F)c3c2C(C)C)cn2ncnc2c1C [Example 51]
48 | 9.12 | 9.08 | 6.00 |  |  |  |  | Cc1c(-c2[nH]c3cnc(C4CCC(N5CC6(COC6)C5)CC4)c(F)c3c2C(C)C)cn2ncnc2c1C (stereo not drawn) [Example 50]
49 | 8.52 | 8.96 | 5.68 |  |  |  |  | Cc1cc(-c2[nH]c3cnc(N4CCC(N(C)CC(C)(C)C)CC4)c(F)c3c2C(C)C)cn2ncnc12 [Example 196]
50 | 8.59 |  |  |  |  | 8.19 | 5.12 | CCCN1CCN(c2ncc3[nH]c(-c4cc(OC)c5ncnn5c4)c(C(C)C)c3c2F)[C@H](C)C1 [Example 437]
